Assay results as given in ChEMBL document CHEMBL1145154 (J Med Chem, 2005).
Active and inactive are the calls of the source. The rule behind the calls is not given here.

What was measured:
A2780 = experiment: In vitro cytotoxicity for human ovarian tumor A2780 cells; type: functional, cell-based
Salmon testes DNA [1] = experiment: Binding affinity towards salmon testes DNA; type: nucleic-acid assay; conditions: Oncorhynchus gorbuscha
Salmon testes DNA [2] = experiment: Binding affinity towards salmon testes DNA; NA=not applicable; type: nucleic-acid assay; conditions: Oncorhynchus gorbuscha

Compound | IC50 (A2780; Homo sapiens, A2780) [µM] | K (Salmon testes DNA [1]) [M⁻¹] | K (Salmon testes DNA [2]) | IC50 (A2780; a2780) [µM]
COc1ccc(C[N+]2=C3c4ccccc4-c4ccccc4N3CC2)cc1 | 1.53 | 28900 |  | 
CCCCCCCCCCCC[N+]1=C2c3ccccc3-c3ccccc3N2CC1 | 0.087 | 129000 |  | 
c1ccc2c(c1)C1=NCCN1c1ccccc1-2 | 1.56 | 25600 |  | 
OCC[N+]1=C2c3ccccc3-c3ccccc3N2CC1 | 11.7 | 20200 |  | 
CARBOPLATIN [listing 1 of 2 here] |  |  | inactive | 
CARBOPLATIN [listing 2 of 2 here] |  |  |  | 5.22
COc1ccc2c(c[n+](C)c3c4cc5c(cc4ccc23)OCO5)c1OC [CHELERYTHRINE CHLORIDE] | 4.63 | 466000 |  | 
